The target of one assay is T1, mGAT4 (Mus musculus, UniProt P31650).
T1 construct: expressed in transfected cells; host or cells: HEK-293
T1 sequence (P31650 1-627): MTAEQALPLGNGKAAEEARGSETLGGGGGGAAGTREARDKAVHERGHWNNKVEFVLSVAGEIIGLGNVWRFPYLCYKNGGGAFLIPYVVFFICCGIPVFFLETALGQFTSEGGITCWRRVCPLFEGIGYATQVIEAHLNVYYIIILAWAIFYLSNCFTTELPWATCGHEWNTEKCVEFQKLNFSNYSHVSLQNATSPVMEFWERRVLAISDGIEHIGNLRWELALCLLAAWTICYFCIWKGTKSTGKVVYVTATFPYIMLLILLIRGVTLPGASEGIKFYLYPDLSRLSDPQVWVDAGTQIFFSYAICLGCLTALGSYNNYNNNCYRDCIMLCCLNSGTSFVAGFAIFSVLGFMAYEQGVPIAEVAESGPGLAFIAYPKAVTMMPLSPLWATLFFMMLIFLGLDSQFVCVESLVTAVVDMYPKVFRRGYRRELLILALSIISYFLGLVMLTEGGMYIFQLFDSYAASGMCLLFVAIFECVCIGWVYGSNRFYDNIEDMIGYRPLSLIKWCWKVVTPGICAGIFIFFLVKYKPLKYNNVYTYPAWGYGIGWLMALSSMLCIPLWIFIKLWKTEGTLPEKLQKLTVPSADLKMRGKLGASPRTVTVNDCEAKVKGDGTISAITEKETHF
The experiment in a line: [3H]GABA uptake assay in HEK-293 cells stably expressing mGAT4. In kind it is cell-based. Conditions: [3H]GABA uptake; read-out: pIC50 ± SEM mGAT4 (converted).

Assay [1] has as its target T2, mGAT1 (Mus musculus, UniProt P31648).
T2 construct: expressed in transfected cells; host or cells: HEK-293
The experiment in a line: [3H]GABA uptake assay in HEK-293 cells stably expressing mGAT1. Conditions: for IC50: [3H]GABA uptake, read-out: pIC50 ± SEM mGAT1 (converted); for remaining [3H]GABA uptake mGAT1: in the presence of 100 μM inhibitor. In kind it is cell-based.

Assay [2] addresses T2, mGAT1. The experiment in a line: competitive MS binding assay with NO711 as unlabeled marker (LC-ESI-MS/MS). Conditions: for Ki: MS binding assay, read-out: pKi ± SEM mGAT1 (converted); for remaining NO711 binding mGAT1: in the presence of 100 μM inhibitor. On the procedure: Specific binding affinity toward mGAT1 was determined via a competitive mass spectrometry (MS) binding assay quantified by liquid chromatography–electrospray ionization tandem mass spectrometry (LC–ESI-MS/MS) with NO711 as an unlabeled marker.[50]
MS binding assays for mGAT1 were performed as described earlier.[50] Inhibition of mGAT1 binding by the synthesized compounds was determined in MS binding assays at a screening concentration of 100 μM and analyzed by LC–ESI-MS/MS.

The target of a further assay is T3, mGAT2 (Mus musculus, UniProt P31651).
T3 construct: expressed in transfected cells; host or cells: HEK-293
T3 sequence (P31651 1-614): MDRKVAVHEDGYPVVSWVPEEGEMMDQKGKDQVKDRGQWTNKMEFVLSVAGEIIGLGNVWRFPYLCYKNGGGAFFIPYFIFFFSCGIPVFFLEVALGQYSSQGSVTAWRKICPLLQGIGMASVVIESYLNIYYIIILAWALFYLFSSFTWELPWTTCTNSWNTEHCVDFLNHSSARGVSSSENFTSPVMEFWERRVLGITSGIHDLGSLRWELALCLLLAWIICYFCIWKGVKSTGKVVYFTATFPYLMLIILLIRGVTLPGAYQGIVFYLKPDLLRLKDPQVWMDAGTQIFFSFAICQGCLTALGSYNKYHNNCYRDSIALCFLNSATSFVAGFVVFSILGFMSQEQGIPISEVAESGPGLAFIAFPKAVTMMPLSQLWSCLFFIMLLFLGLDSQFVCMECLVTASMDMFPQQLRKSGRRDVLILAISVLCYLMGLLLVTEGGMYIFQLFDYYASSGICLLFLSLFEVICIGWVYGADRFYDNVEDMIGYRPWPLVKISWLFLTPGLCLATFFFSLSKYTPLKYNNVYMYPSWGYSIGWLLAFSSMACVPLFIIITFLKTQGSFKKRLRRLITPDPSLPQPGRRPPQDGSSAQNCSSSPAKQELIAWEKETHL
The experiment in a line: [3H]GABA uptake assay in HEK-293 cells stably expressing mGAT2. It counts as cell-based. Conditions: [3H]GABA uptake; read-out: pIC50 ± SEM mGAT2 (converted).

In a further assay the target is T4, mGAT3 (Mus musculus, UniProt P31649).
T4 construct: expressed in transfected cells; host or cells: HEK-293
T4 sequence (P31649 1-602): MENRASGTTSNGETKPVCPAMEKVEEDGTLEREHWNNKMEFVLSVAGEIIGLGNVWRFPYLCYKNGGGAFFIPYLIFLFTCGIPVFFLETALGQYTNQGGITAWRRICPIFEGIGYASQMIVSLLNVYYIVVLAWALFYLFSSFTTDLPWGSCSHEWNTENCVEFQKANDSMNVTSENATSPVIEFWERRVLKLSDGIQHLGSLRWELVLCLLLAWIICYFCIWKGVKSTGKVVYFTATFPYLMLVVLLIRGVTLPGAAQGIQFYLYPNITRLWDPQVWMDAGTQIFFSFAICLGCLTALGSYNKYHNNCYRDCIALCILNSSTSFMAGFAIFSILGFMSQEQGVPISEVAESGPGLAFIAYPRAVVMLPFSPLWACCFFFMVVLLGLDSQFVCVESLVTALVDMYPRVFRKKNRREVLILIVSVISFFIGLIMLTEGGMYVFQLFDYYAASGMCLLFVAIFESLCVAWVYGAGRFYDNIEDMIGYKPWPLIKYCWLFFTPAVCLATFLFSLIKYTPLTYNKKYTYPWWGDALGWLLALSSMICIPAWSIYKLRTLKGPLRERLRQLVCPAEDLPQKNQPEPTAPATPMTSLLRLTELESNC
The experiment in a line: [3H]GABA uptake assay in HEK-293 cells stably expressing mGAT3. It counts as cell-based. Conditions: [3H]GABA uptake; read-out: pIC50 ± SEM mGAT3 (converted).

This note sets out measurements from paper PMC8397297 (ACS Chemical Neuroscience, 2021).

Molecules are shown by their SMILES.

As for `CN(CCON=C(c1ccccc1)c1ccccc1)C(CCN)C(=O)NCc1ccc(Cl)c(Cl)c1` (stereo not shown) [Compound 50b, 4-Amino-N-[(3,4-dichlorophenyl)methyl]-2-[(2-{[(diphenylmethylidene)amino]oxy}ethyl)(methyl)amino]butanamide], the IC50 at mGAT4 is 4.9 µM; on mGAT1 [1], 12.3 µM; at mGAT2, 4.9 µM; on mGAT3, 4.79 µM. For the same compound, the Ki on mGAT1 [2] was 33.1 µM.
For `CC(=O)NCCC(C(=O)NCc1ccccc1Cl)N(C)CCON=C(c1ccccc1)c1ccccc1` (stereo not shown) [Compound 51a, N-[(2-Chlorophenyl)methyl]-2-[(2-{[(diphenylmethylidene)amino]oxy}ethyl)(methyl)amino]-4-acetamidobutanamide], the IC50 on mGAT4 is 12.6 µM; at mGAT1 [1], 18.2 µM; on mGAT2 it was 13.2 µM; at mGAT3, 9.33 µM. In addition, the “remaining NO711 binding mGAT1” value on mGAT1 [2] is listed as 100 μM: 74%.
For `CC(=O)NCCC(C(=O)NCc1ccc(Cl)c(Cl)c1)N(C)CCON=C(c1ccccc1)c1ccccc1` (stereo not shown) [Compound 51b, N-[(3,4-Dichlorophenyl)methyl]-2-[(2-{[(diphenylmethylidene)amino]oxy}ethyl)(methyl)amino]-4-acetamidobutanamide], in that order: 11.2 µM, 11.7 µM, 12 µM, 6.76 µM and 100 μM: 72%.
Take `Cc1ccsc1C(=C1CCN(C(CO)C(=O)NCc2ccccc2)CC1)c1sccc1C` (stereo not shown) [Compound 54a, N-Benzyl-2-{4-[bis(3-methylthiophen-2-yl)methylidene]piperidin-1-yl}-3-hydroxypropanamide]: the IC50 at mGAT4 is 44.7 µM; on mGAT1 [1] it was 15.1 µM; at mGAT2, 16.6 µM; on mGAT3 it was 16.2 µM. Further, the “remaining NO711 binding mGAT1” value on mGAT1 [2] is listed as 100 μM: 86%.
For `Cc1ccsc1C(=C1CCN(C(CO)C(=O)NCc2ccccc2Cl)CC1)c1sccc1C` (stereo not shown) [Compound 54b, 2-{4-[Bis(3-methylthiophen-2-yl)methylidene]piperidin-1-yl}-N-[(2-chlorophenyl)methyl]-3-hydroxypropanamide], the IC50 on mGAT4 was 95.5 µM; at mGAT2 it was 43.7 µM; at mGAT3, 63.1 µM. Besides, the “remaining [3H]GABA uptake mGAT1” value at mGAT1 [1] is given as 100 μM: 53%. In addition, the “remaining NO711 binding mGAT1” value at mGAT1 [2] is reported as 100 μM: 100%.
For `Cc1ccsc1C(=C1CCN(C(CO)C(=O)NCc2ccc(F)cc2)CC1)c1sccc1C` (stereo not shown) [Compound 54c, 2-{4-[Bis(3-methylthiophen-2-yl)methylidene]piperidin-1-yl}-N-[(4-fluorophenyl)methyl]-3-hydroxypropanamide], the IC50 is 28.8 µM at mGAT4, 17 µM on mGAT1 [1], 13.8 µM on mGAT2 and 16.2 µM on mGAT3. Besides, the “remaining NO711 binding mGAT1” value at mGAT1 [2] is listed as 100 μM: 96%.
The matching figures for `CN(CCC=C1c2ccccc2C=Cc2ccccc21)C(CO)C(=O)NCc1ccccc1` (stereo not shown) [Compound 55a, 2-((3-(5H-Dibenzo[a,d][7]annulen-5-ylidene)propyl)(methyl)amino)-N-benzyl-3-hydroxypropanamide]: 8.32 µM, 17.4 µM, 26.3 µM, 15.8 µM and 100 μM: 83%.
For `CN(CCC=C1c2ccccc2C=Cc2ccccc21)C(CO)C(=O)NCc1ccccc1Cl` (stereo not shown) [Compound 55b, 2-((3-(5H-Dibenzo[a,d][7]annulen-5-ylidene)propyl)(methyl)amino)-N-(2-chlorobenzyl)-3-hydroxypropanamide], in that order: 9.55 µM, 25.7 µM, 15.8 µM, 10.7 µM and 100 μM: 65%.
The matching figures for `CN(CCC=C1c2ccccc2C=Cc2ccccc21)C(CO)C(=O)NCc1ccc(Cl)cc1` (stereo not shown) [Compound 55c, 2-((3-(5H-Dibenzo[a,d][7]annulen-5-ylidene)propyl)(methyl)amino)-N-(4-chlorobenzyl)-3-hydroxypropanamide]: 16.6 µM, 28.8 µM, 60.3 µM, 15.1 µM and 100 μM: 49%.
Take `CN(CCC=C1c2ccccc2C=Cc2ccccc21)C(CO)C(=O)NCc1ccc(F)cc1` (stereo not shown) [Compound 55d]: the IC50 on mGAT4 is 17 µM; at mGAT1 [1], 26.3 µM; on mGAT2, 20.4 µM; on mGAT3, 10.5 µM. At mGAT1 [2], the “remaining NO711 binding mGAT1” value is given as 100 μM: 90%.
Regarding `Cc1ccc(CNC(=O)C(CO)N(C)CCC=C2c3ccccc3C=Cc3ccccc32)cc1` (stereo not shown) [Compound 55e, 2-((3-(5H-Dibenzo[a,d][7]annulen-5-ylidene)propyl)(methyl)amino)-N-(4-methylbenzyl)-3-hydroxypropanamide], the IC50 on mGAT4 is 13.2 µM; on mGAT1 [1] it was 26.9 µM; on mGAT2, 21.4 µM; on mGAT3, 15.8 µM. On mGAT1 [2], the Ki is 29.5 µM.
Take `CN(CCC=C1c2ccccc2CCc2ccccc21)C(CO)C(=O)NCc1ccccc1Cl` (stereo not shown) [Compound 56b, N-(2-Chlorobenzyl)-2-((3-(10.11-dihydro-5H-dibenzo[a,d][7]annulen-5-ylidene)propyl)(methyl)amino)-3-hydroxypropanamide]: the IC50 at mGAT4 was 27.5 µM; on mGAT2, 25.7 µM; on mGAT3 it was 10.5 µM. Further, the “remaining [3H]GABA uptake mGAT1” value on mGAT1 [1] is 100 μM: 50%. In addition, the “remaining NO711 binding mGAT1” value at mGAT1 [2] was 100 μM: 86%.
With `CN(CCC=C1c2ccccc2CCc2ccccc21)C(CO)C(=O)NCc1ccc(Cl)cc1` (stereo not shown) [Compound 56c, N-(4-Chlorobenzyl)-2-((3-(10,11-dihydro-5H-dibenzo[a,d][7]annulen-5-ylidene)propyl)(methyl)amino)-3-hydroxypropanamide], the IC50 is 10.2 µM at mGAT4, 61.7 µM at mGAT1 [1], 29.5 µM on mGAT2 and 14.5 µM on mGAT3. Besides, at mGAT1 [2], the “remaining NO711 binding mGAT1” value is listed as 100 μM: 87%.
The matching figures for `CN(CCC=C1c2ccccc2CCc2ccccc21)C(CO)C(=O)NCc1ccc(F)cc1` (stereo not shown) [Compound 56d, N-(4-Fluorobenzyl)-2-((3-(10,11-dihydro-5H-dibenzo[a,d][7]annulen-5-ylidene)propyl)(methyl)amino)-3-hydroxypropanamide]: 12.3 µM, 17.8 µM, 21.4 µM, 12.9 µM and 100 μM: 96%.
